From patent US20260125378A2, “Heterocyclic Compounds” (BeOne Medicines I GmbH, priority 2023, published 2026)

Experiments:
[1] = target: T1, Full length DGKζ (in-house protein M1-V929) (Homo sapiens, UniProt Q13574); test: Biochemical DGK IC50 assay (ADP-Glo, lipid micelle substrate), DGKζ; conditions: 1 hour preincubation, 1 hour reaction, room temperature
T1 construct: His (N); TEV site (N); made in house; host or cells: Sf9 insect cells (Bac-to-Bac baculovirus)
Method in brief: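 Enzyme: full-length human DGKζ M1-V929, produced in baculovirus-infected Sf9 cells; substrate DAG/PS micelles. Buffer 50 mM HEPES, 10 mM MgCl2, 0.01 mM CaCl2, 0.1 mM Na3VO4.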

[2] = target: T2, Full length DGKα (D21-10BG, SignalChem) (Homo sapiens, UniProt P23743); test: Biochemical DGK IC50 assay (ADP-Glo, lipid micelle substrate), DGKα; conditions: 1 hour preincubation, 1 hour reaction, room temperature
T2 construct: Full length DGKα (D21-10BG, SignalChem); purchased SignalChem D21-10BG
T2 sequence (P23743 whole entry): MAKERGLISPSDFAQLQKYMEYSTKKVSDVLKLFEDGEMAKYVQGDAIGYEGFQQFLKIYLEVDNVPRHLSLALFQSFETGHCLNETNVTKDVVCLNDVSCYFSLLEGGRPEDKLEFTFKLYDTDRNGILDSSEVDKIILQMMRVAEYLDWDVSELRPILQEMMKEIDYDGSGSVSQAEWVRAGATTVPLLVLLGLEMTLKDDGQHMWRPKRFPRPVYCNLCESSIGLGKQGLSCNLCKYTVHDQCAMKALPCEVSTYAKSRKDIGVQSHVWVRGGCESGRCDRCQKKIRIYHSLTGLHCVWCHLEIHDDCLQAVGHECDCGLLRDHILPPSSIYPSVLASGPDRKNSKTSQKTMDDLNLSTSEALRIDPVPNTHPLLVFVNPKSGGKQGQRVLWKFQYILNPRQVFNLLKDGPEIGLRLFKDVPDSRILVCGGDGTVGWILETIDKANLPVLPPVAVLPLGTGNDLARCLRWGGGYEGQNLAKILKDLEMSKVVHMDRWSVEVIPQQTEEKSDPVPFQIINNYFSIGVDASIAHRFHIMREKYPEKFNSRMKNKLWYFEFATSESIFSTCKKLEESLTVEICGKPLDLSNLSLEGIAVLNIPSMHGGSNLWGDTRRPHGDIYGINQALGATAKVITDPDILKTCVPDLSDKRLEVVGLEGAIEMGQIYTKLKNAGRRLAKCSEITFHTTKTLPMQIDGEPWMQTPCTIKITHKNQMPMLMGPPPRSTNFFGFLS
Method in brief: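 ADP-Glo luminescence quantified ADP produced after a 1 h room-temperature reaction of full-length DGKα on DAG/PS micelles, in HEPES buffer containing MgCl2, CaCl2, vanadate, BSA and Tween-20. IC50 values derive from activity inhibition over a compound concentration series.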

T1 sequence (Q13574 1-929 isoform Q13574-4): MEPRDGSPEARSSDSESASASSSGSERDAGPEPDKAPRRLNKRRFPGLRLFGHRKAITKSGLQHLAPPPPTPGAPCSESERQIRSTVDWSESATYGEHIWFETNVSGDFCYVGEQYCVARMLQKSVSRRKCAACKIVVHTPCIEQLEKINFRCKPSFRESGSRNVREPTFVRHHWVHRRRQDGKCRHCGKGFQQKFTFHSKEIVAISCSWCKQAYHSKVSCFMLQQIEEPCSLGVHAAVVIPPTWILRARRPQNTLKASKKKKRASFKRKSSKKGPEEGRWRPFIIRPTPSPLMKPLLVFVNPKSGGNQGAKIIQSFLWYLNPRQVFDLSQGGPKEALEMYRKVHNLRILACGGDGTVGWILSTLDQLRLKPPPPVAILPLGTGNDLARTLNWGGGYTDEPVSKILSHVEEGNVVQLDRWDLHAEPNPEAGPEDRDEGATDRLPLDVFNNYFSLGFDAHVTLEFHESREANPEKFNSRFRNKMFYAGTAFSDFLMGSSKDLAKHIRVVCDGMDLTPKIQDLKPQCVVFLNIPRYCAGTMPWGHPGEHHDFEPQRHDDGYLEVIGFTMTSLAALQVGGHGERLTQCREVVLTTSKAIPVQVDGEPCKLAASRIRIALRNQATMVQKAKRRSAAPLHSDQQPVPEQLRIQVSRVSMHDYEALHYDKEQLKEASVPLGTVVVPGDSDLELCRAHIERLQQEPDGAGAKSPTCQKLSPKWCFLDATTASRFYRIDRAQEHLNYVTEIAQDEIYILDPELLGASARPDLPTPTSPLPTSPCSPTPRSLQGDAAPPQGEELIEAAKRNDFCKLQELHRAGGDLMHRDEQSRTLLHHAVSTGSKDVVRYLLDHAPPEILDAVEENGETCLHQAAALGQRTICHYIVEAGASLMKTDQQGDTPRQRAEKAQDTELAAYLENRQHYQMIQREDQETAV

CCn1c(CC#N)nc2c(N3C[C@@H](C)N(C(C)c4cc5c(cc4F)OC(C)(C)O5)C[C@@H]3C)nc(=O)n(C)c21 (single isomer, unassigned) [Compound A174b]
IC50 [1]: 69 nM | IC50 [2]: 30600 nM

Cc1cnc2ccc(C(C)N3C[C@H](C)N(c4nc(=O)n(C)c5c4nc(CC#N)n5C)C[C@H]3C)cc2n1 (single isomer, unassigned) [Compound A49a]
IC50 [1]: 6 nM | IC50 [2]: 77900 nM

CC[C@H]1CN(C(C)c2ccc(F)cc2C(F)(F)F)[C@H](CC)CN1c1nc(=O)n(C)c2c1nc(CC#N)n2C (single isomer, unassigned) [Compound A34a]
IC50 [1]: 392 nM | IC50 [2]: > 10000 nM

CCn1c(CC#N)nc2c(N3C[C@@H](C)N(C(C)c4cccc(C(C)C)c4)C[C@@H]3C)nc(=O)n(C)c21 (mixture of isomers) [Compound A108, 2-(9-ethyl-6-((2S,5R)-4-(1-(3-isopropylphenyl)ethyl)-2,5-dimethylpiperazin-1-yl)-3-methyl-2-oxo-3,9-dihydro-2H-purin-8-yl)acetonitrile]
IC50 [1]: 32 nM | IC50 [2]: 95100 nM

CCn1c(CC#N)nc2c(N3C[C@@H](C)N(C(C)c4ccc5c(c4)OC(C)(C)CO5)C[C@@H]3C)nc(=O)n(CC)c21 (stereo partly drawn) [Compound A62, 2-(6-((2S,5R)-4-(1-(3,3-dimethyl-2,3-dihydrobenzo[b][1,4]dioxin-6-yl)ethyl)-2,5-dimethylpiperazin-1-yl)-3,9-diethyl-2-oxo-3,9-dihydro-2H-purin-8-yl)acetonitrile]
IC50 [1]: 279 nM | IC50 [2]: > 150000 nM

CCn1c(CC#N)nc2c(N3C[C@@H](C)N(C(C)c4ccc5c(n4)OC(C)CO5)C[C@@H]3C)nc(=O)n(C)c21 (stereo partly drawn) [Compound A89, 2-(6-((2S,5R)-2,5-dimethyl-4-(1-(3-methyl-2,3-dihydro-[1,4]dioxino[2,3-b]pyridin-6-yl)ethyl)piperazin-1-yl)-9-ethyl-3-methyl-2-oxo-3,9-dihydro-2H-purin-8-yl)acetonitrile]
IC50 [1]: 334 nM | IC50 [2]: > 150000 nM

CCn1c(CC#N)nc2c(N3C[C@@H](C)N(C(C)c4ccc(C)c(C(F)(F)F)c4)C[C@@H]3C)nc(=O)n(C)c21 (stereo partly drawn) [Compound A115, 2-(6-((2S,5R)-2,5-dimethyl-4-(1-(4-methyl-3-(trifluoromethyl)phenyl)ethyl)piperazin-1-yl)-9-ethyl-3-methyl-2-oxo-3,9-dihydro-2H-purin-8-yl)acetonitrile]
IC50 [1]: 19 nM | IC50 [2]: > 150000 nM

CCn1c(CC#N)nc2c(N3C[C@@H](C)N(C(C)c4ccc5c(n4)OC(C)(C)CO5)C[C@@H]3C)nc(=O)n(C)c21 (single isomer, unassigned) [Compound A74b]
IC50 [1]: 4870 nM | IC50 [2]: > 150000 nM

CC(c1ccc2c(c1)OC(C)(C)CO2)N1C[C@H](C)N(c2nc(=O)n(C)c3c2nc(CC#N)n3C2CC2)C[C@H]1C (stereo partly drawn) [Compound A86, 2-(9-cyclopropyl-6-((2S,5R)-4-(1-(3,3-dimethyl-2,3-dihydrobenzo[b][1,4]dioxin-6-yl)ethyl)-2,5-dimethylpiperazin-1-yl)-3-methyl-2-oxo-3,9-dihydro-2H-purin-8-yl)acetonitrile]
IC50 [1]: 67 nM | IC50 [2]: > 150000 nM

CC[C@H]1CN(C(C)c2ccc(C(F)(F)F)cc2)[C@H](CC)CN1c1nc(=O)n(C)c2c1nc(CC#N)n2C (single isomer, unassigned) [Compound A149a]
IC50 [1]: 37 nM | IC50 [2]: 1620 nM

CC#CC(c1ccc(C)cc1)N1C[C@H](C)N(c2nc(=O)n(C)c3c2nc(CC#N)n3CC)C[C@H]1C (stereo partly drawn) [Compound A145, 2-(6-((2S,5R)-2,5-dimethyl-4-(1-(p-tolyl)but-2-yn-1-yl)piperazin-1-yl)-9-ethyl-3-methyl-2-oxo-3,9-dihydro-2H-purin-8-yl)acetonitrile]
IC50 [1]: 480 nM | IC50 [2]: 5620 nM

CCn1c(CC#N)nc2c(N3C[C@@H](C)N(C(C)c4cccc5c4OC(C)(C)O5)C[C@@H]3C)nc(=O)n(C)c21 (stereo partly drawn) [Compound A186, 2-(6-((2S,5R)-4-(1-(2,2-dimethylbenzo[d][1,3]dioxol-4-yl)ethyl)-2,5-dimethylpiperazin-1-yl)-9-ethyl-3-methyl-2-oxo-3,9-dihydro-2H-purin-8-yl)acetonitrile]
IC50 [1]: 156 nM | IC50 [2]: 143000 nM

CCn1c(CC#N)nc2c(N3C[C@@H](C)N(C(C)c4cccc5c4OC(F)(F)O5)C[C@@H]3C)nc(=O)n(C)c21 (stereo partly drawn) [Compound A187, 2-(6-((2S,5R)-4-(1-(2,2-difluorobenzo[d][1,3]dioxol-4-yl)ethyl)-2,5-dimethylpiperazin-1-yl)-9-ethyl-3-methyl-2-oxo-3,9-dihydro-2H-purin-8-yl)acetonitrile]
IC50 [1]: 407 nM | IC50 [2]: 115000 nM

CC(c1ccc2c(c1)OC(F)(F)O2)N1C[C@H](C)N(c2nc(=O)n(C)c3c2nc(CC#N)n3C)C[C@H]1C (stereo partly drawn) [Compound A167, 2-(6-((2S,5R)-4-(1-(2,2-difluorobenzo[d][1,3]dioxol-5-yl)ethyl)-2,5-dimethylpiperazin-1-yl)-3,9-dimethvl-2-oxo-3,9-dihydro-2H-purin-8-yl)acetonitrile]
IC50 [1]: 90 nM | IC50 [2]: 19000 nM

CCn1c(CC#N)nc2c(N3C[C@@H](C)N(C(C)c4ccc5c(c4F)OC(C)(C)O5)C[C@@H]3C)c(F)c(=O)n(C)c21 (single isomer, unassigned) [Compound A190b]
IC50 [1]: 41 nM | IC50 [2]: 38200 nM

CCn1c(CC#N)nc2c(N3C[C@@H](C)N(C(C)c4cccc(C)c4)C[C@@H]3C)nc(=O)n(C)c21 (stereo partly drawn) [Compound A45, 2-(6-((2S,5R)-2,5-dimethyl-4-(1-(m-tolyl)ethyl)piperazin-1-yl)-9-ethyl-3-methyl-2-oxo-3,9-dihydro-2H-purin-8-yl)acetonitrile]
IC50 [1]: 410 nM | IC50 [2]: 79300 nM

CCc1nc2cc(C(C)N3C[C@H](C)N(c4nc(=O)n(C)c5c4nc(CC#N)n5CC)C[C@H]3C)ccc2s1 (single isomer, unassigned) [Compound A95b]
IC50 [1]: 555 nM | IC50 [2]: 108000 nM

CCn1c(CC#N)nc2c(N3C[C@@H](C)N(C(C)c4ccc5c(n4)OC(C)(C)CO5)C[C@@H]3C)nc(=O)n(C)c21 (stereo partly drawn) [Compound A74, 2-(6-((2S,5R)-4-(1-(3,3-dimethyl-2,3-dihydro-[1,4]dioxino[2,3-b]pyridin-6-yl)ethyl)-2,5-dimethylpiperazin-1-yl)-9-ethyl-3-methyl-2-oxo-3,9-dihydro-2H-purin-8-yl)acetonitrile]
IC50 [1]: 45 nM | IC50 [2]: > 150000 nM

CCn1c(CC#N)nc2c(N3C[C@@H](C)N(C(C)c4ccc(C)c(C)n4)C[C@@H]3C)nc(=O)n(C)c21 (stereo partly drawn) [Compound A138, 2-(6-((2S,5R)-4-(1-(5,6-dimethylpyridin-2-yl)ethyl)-2,5-dimethylpiperazin-1-yl)-9-ethyl-3-methyl-2-oxo-3,9-dihydro-2H-purin-8-yl)acetonitrile]
IC50 [1]: 949 nM | IC50 [2]: > 150000 nM

CC(c1ccc2c(c1)OCCO2)N1C[C@H](C)N(c2nc(=O)n(C)c3c2nc(CC#N)n3C)C[C@H]1C (stereo partly drawn) [Compound A58, 2-(6-((2S,5R)-4-(1-(2,3-dihydrobenzo[b][1,4]dioxin-6-yl)ethyl)-2,5-dimethylpiperazin-1-yl)-3,9-dimethyl-2-oxo-3,9-dihydro-2H-purin-8-yl)acetonitrile]
IC50 [1]: 40 nM | IC50 [2]: > 10000 nM

Cc1ccc(C(C)N2C[C@H](C)N(c3cc(=O)n(C)c4c3nc(CC#N)n4C)C[C@H]2C)cc1 (single isomer, unassigned) [Compound A5a]
IC50 [1]: 878 nM | IC50 [2]: 5770 nM

CCn1c(CC#N)nc2c(N3C[C@@H](C)N(C(C)c4ccnc(-c5ccccc5)c4)C[C@@H]3C)nc(=O)n(C)c21 (stereo partly drawn) [Compound A144, 2-(6-((2S,5R)-2,5-dimethyl-4-(1-(2-phenylpyridin-4-yl)ethyl)piperazin-1-yl)-9-ethyl-3-methyl-2-oxo-3,9-dihydro-2H-purin-8-yl)acetonitrile]
IC50 [1]: 60 nM | IC50 [2]: 74100 nM

CCn1c(CC#N)nc2c(N3C[C@@H](C)N(C(C)c4ccnc(N5CCC5)c4)C[C@@H]3C)nc(=O)n(C)c21 (stereo partly drawn) [Compound A121, 2-(6-((2S,5R)-4-(1-(2-(azetidin-1-yl)pyridin-4-yl)ethyl)-2,5-dimethylpiperazin-1-yl)-9-ethyl-3-methyl-2-oxo-3,9-dihydro-2H-purin-8-yl)acetonitrile]
IC50 [1]: 212 nM | IC50 [2]: > 150000 nM
